Entries after “also recorded” stand apart in the source; their conditions may differ.
What was measured:
[1] = system: FP-sensitive SHs in the mouse brain membrane proteome; assay: Gel-based competitive ABPP in vitro, mouse brain membrane proteome, anti-targets; format: biochemical; conditions: for Anti-target(s) 0.1 μM: SHs with at least 50% inhibition at 0.1 μM compound; for Anti-target(s) 1 μM: SHs with at least 50% inhibition at 1 μM compound; for Anti-target(s) 10 μM: SHs with at least 50% inhibition at 10 μM compound; for Anti-target(s) 100 μM: SHs with at least 50% inhibition at 100 μM compound
In short: (§1)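 Mouse brain membrane proteome (1 mg/mL in DPBS) was treated with compound (0.1-100 μM) for 30 min at 37 °C, then labeled with FP-Rh (2 μM final, 30 min, 25 °C). Bands were resolved by SDS-PAGE and scanned in-gel, with inhibition taken from band optical density versus DMSO. Targets counted as active or anti-targets at ≥50% inhibition.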

human SHs = assay: ABPP-SILAC analysis to identify SH targets of Compound 5; format: biochemical
Text: Compound 5 was selected for analysis by mass spectrometry (MS)-based ABPP methods to assess the range of SHs targeted by N-Hydroxy bicyclic hydantoin carbamates.

LYPLA2 = biological target: T1, LYPLA2 (Mus musculus, UniProt Q9WTL7); assay: Gel-based competitive ABPP in vitro, mouse brain membrane proteome; format: biochemical; conditions: for inhibition at 0.1 µM: 0.1 μM compound, read-out: LYPLA2 % INH 0.1 μM; for inhibition at 0.1 µM / inhibition at 1 µM / inhibition at 10 µM / inhibition at 100 µM: 30 min, one replicate; for inhibition at 1 µM: 1 μM compound, read-out: LYPLA2 % INH 1 μM; for inhibition at 10 µM: 10 μM compound, read-out: LYPLA2 % INH 10 μM; for inhibition at 100 µM: 100 μM compound, read-out: LYPLA2 % INH 100 μM
T1 construct: a complex proteome endogenously expressing LYPLA1/2 was incubated with test compound; from tissue; host or cells: mouse brain, membrane fraction
T1 sequence (Q9WTL7 whole entry): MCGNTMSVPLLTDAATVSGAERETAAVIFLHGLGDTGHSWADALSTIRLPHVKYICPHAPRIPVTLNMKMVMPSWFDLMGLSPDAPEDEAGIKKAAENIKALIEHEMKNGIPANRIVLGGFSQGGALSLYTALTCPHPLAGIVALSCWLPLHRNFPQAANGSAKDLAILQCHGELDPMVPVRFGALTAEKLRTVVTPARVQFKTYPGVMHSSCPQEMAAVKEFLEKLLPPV
In short: as §1

LYPLA1 = biological target: T2, LYPLA1 (Mus musculus, UniProt P97823); assay: as above; format: biochemical; conditions: for inhibition at 0.1 µM: 0.1 μM compound, read-out: LYPLA1 % INH 0.1 μM; for inhibition at 0.1 µM / inhibition at 1 µM / inhibition at 10 µM / inhibition at 100 µM: 30 min, one replicate; for inhibition at 1 µM: 1 μM compound, read-out: LYPLA1 % INH 1 μM; for inhibition at 10 µM: 10 μM compound, read-out: LYPLA1 % INH 10 μM; for inhibition at 100 µM: 100 μM compound, read-out: LYPLA1 % INH 100 μM
T2 construct: a complex proteome endogenously expressing LYPLA1/2 was incubated with test compound; from tissue; host or cells: mouse brain, membrane fraction
T2 sequence (P97823 whole entry): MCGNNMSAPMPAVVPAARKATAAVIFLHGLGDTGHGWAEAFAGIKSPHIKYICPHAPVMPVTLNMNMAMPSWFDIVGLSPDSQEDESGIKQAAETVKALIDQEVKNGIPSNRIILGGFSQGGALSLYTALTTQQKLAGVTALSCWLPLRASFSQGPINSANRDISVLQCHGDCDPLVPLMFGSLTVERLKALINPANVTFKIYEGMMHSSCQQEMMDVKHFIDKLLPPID
In short: as §1

mABHD3 = biological target: T3, mABHD3 (Mus musculus, UniProt Q91ZH7); assay: Gel-based competitive ABPP, recombinant enzyme in transfected HEK293T cell lysates; format: biochemical; conditions: transfected HEK293T lysates, read-out: mABHD3 in vitro potency (IC50)
T3 construct: expressed in transfected cells; host or cells: HEK293T, transient transfection, pCMV-Sport6; lysate used in vitro
T3 sequence (Q91ZH7 1-411): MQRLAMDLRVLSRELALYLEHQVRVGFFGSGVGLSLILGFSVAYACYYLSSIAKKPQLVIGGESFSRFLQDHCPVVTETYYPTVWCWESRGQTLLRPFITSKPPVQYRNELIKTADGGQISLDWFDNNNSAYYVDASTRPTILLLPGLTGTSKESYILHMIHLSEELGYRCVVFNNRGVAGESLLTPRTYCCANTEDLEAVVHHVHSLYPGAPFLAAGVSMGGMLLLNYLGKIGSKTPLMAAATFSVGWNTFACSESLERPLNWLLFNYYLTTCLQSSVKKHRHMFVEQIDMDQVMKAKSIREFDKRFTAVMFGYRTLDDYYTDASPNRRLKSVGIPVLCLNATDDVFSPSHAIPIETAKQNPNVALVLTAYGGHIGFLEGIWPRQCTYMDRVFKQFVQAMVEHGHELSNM
Method: (§2) HEK293T cells were seeded at 2×10^5 per well on 6 well plates and grown for 48 h. They were then transfected with mABHD3 (pCMV-Sport6), hABHD4 (pcDNA3.1/myc-his), hPPT1 (pCMV6-XL5), or hPPT1 S115A (pCMV6-XL5), by incubating 0.5 μg of DNA with 3 μL of PEI MAX (1 mg/mL, Polysciences, Inc) in serum-free DMEM for 30 min, then adding them to cells. After 48 h cells were either treated with compound in situ, as described above, or harvested for in vitro studies. The […] PPT1 mutation was introduced using QuikChange II Site Directed Mutagenesis Kit (Agilent) with the following primers: […]
Human ABHD3 and ABHD4 were recombinantly expressed by transient transfection in HEK293T cells, and the cell lysates were combined to provide a convenient assay for monitor inhibition of both enzymes by gel-based ABPP (see FIG. 8A).

ABHD4 = biological target: T4, ABHD4 (Homo sapiens, UniProt Q8TB40); assay: as above; format: biochemical; parameters: myc-his; expressed in transfected cells; host or cells: HEK293T, transient transfection, pcDNA3.1/myc-his; lysate used in vitro; conditions: recombinant; for IC50: transfected HEK293T lysates, read-out: hABHD4 in vitro potency (IC50)
T4 sequence (Q8TB40 1-342): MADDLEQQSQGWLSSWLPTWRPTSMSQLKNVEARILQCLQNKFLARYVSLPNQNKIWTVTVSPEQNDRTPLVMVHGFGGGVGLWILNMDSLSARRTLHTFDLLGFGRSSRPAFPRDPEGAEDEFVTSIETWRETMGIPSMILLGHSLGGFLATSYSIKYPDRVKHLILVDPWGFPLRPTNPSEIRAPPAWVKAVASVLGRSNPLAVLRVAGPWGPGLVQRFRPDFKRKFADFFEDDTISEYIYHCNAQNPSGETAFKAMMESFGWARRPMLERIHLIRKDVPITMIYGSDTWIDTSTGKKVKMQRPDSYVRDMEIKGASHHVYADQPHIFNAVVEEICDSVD
Method: as §2
Human ABHD3 and ABHD4 were recombinantly expressed by transient transfection in HEK293T cells, and the cell lysates were combined to provide a convenient assay for monitor inhibition of both enzymes by gel-based ABPP (see FIG. 8A). […]

human LYPLA2 = biological target: T5, human LYPLA2 (Homo sapiens, UniProt O95372); assay: IC50 by gel-based competitive ABPP in vitro, soluble HeLa cell proteome; format: biochemical; conditions: human LYPLA isoform, three replicates; Table 2 prints no unit, nM; read-out: LYPLA2 IC50
T5 construct: endogenous human LYPLA1/2 in a HeLa soluble proteome; endogenous in cells; host or cells: HeLa (soluble proteome in vitro; cultured cells in situ)
T5 sequence (O95372 whole entry, canonical isoform): as the sequence (Q9WTL7 whole entry) above, with N154A, T193S counted along it
Method: (§3) Assay Overview: The purpose of this assay was to determine IC50 values of powder samples of test compounds for enzyme of interest activity, and anti-targets in a complex proteomic lysate using a gel-based competitive ABPP assay. In this assay, a complex proteome was incubated with test compound followed by reaction with FP-Rh and SDS-PAGE analysis as described above.
(§4) Protocol Summary: Soluble HeLa cell proteome (50 μL reaction volume, 1 mg/mL in DPBS) or mouse brain membrane proteome (50 μL reaction volume, 1 mg/mL in DPBS) was treated with varying concentrations of test compound (1 μL of a 50× stock in DMSO) for 30 minutes at 37° C. FP-Rh (1 μL of 50× stock in DMSO) was added to a final concentration of 2 μM. The reaction was incubated for 30 minutes at 25° C., quenched with 16 μL 4×SDS-PAGE loading buffer (reducing), separated by SDS-PAGE and visualized by in-gel fluorescent scanning. The percentage activity remaining was determined by measuring the integrated optical density of the enzymes of interest, and anti-target bands relative to a DMSO-only (no compound) control. IC50 values were determined from dose-response curves from three replicates at each inhibitor concentration: 1, 10, 100, 1000, 10000 nM and 0.01, 0.1, 1, 10, 100, 1000, 10000, 50000, and 100000 nM.

human LYPLA1 = biological target: T6, human LYPLA1 (Homo sapiens, UniProt O75608); assay: as above; format: biochemical; conditions: human LYPLA isoform, three replicates; Table 2 prints no unit, nM; read-out: LYPLA1 IC50
T6 construct: endogenous human LYPLA1/2 in a HeLa soluble proteome; endogenous in cells; host or cells: HeLa (soluble proteome in vitro; cultured cells in situ)
T6 sequence (O75608 whole entry, canonical isoform): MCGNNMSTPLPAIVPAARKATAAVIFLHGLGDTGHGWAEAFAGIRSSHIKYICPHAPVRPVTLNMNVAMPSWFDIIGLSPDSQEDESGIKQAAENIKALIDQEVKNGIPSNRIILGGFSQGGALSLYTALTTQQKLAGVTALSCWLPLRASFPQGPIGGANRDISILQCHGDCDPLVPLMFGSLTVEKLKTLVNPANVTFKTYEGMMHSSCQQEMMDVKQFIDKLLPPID
Method: as §3, §4

[2] = Analysis of cytotoxicity (WST-1); format: cell-based, human; conditions: human, HeLa cells; HeLa, 48 h, WST-1
Method: Assay Overview: The purpose of this assay was to determine cytotoxicity of powder samples of test compounds. In this assay, HeLa cells in either serum-free medium or medium containing fetal calf serum (FCS) were incubated with test compounds, followed by determination of cell viability. The assay utilized the WST-1 substrate, which was converted into colorimetric formazan dye by the metabolic activity of viable cells. The amount of formed formazan directly correlated to the number of metabolically active cells in the culture.
Protocol Summary: This assay was started by seeding HeLa cells in DMEM medium supplemented with 10% FCS and 1× Pen-Strep-Glutamine in a 96-well plate. Cells were incubated at 37° C. in a humidified incubator until 80% confluent (24 hours). Medium was removed, and 100 μL of fresh medium (serum-free or supplemented with 10% FCS), pre-mixed with DMSO or test compound, was added to each well. Cells were incubated for 48 hours at 37° C. in a humidified incubator and cell viability was determined by the WST-1 assay (Roche) according to manufacturer instructions. CC50 values were determined from dose-response curves from three replicates at each inhibitor concentration (10, 100, 1000, 10000, 100000 nM), compared to six replicates of cells treated with DMSO only.

[3] = 20 μM, mouse brain (mem) proteome

inhibition at 0.1 µM (LYPLA2) [%]	inhibition at 1 µM (LYPLA2) [%]	inhibition at 10 µM (LYPLA2) [%]	inhibition at 100 µM (LYPLA2) [%]	inhibition at 0.1 µM (LYPLA1) [%]	inhibition at 1 µM (LYPLA1) [%]	inhibition at 10 µM (LYPLA1) [%]	inhibition at 100 µM (LYPLA1) [%]	IC50 (mABHD3) [µM]	IC50 (ABHD4) [µM]	SMILES	Anti-target(s) 0.1 μM [1]	Anti-target(s) 1 μM [1]	Anti-target(s) 10 μM [1]	Anti-target(s) 100 μM [1]	also measured
50	80	100	100	50	80	100	100			CC(C)(C)OC(=O)N1CCN2C(=O)N(OC(=O)N3CCC(CCc4ccc(Cl)cc4)CC3)C(=O)C2C1 (stereo not shown) [Compound 5, tert-butyl 2-(4-(4-chlorophenethyl)piperidine-1-carbonyloxy)-1,3-dioxohexahydroimidazo[1,5-a]pyrazine-7(1H)-carboxylate]	ABHD6	FAAH,; also recorded: ABHD6	FAAH,; also recorded: ABHD12,; also recorded: ABHD6	FAAH,; also recorded: ABHD12,; also recorded: MAGL,; also recorded: ABHD6	SHs inhibited by Compound 5 (three-fold or greater decrease in signal) (human SHs): ABHD6 and MGLL and ABHD4 and ABHD12 and PLA2G15 and PNPLA4
								> 10	1	O=C(ON1C(=O)C2CN(Cc3cccc(Oc4ccccc4)c3)CCN2C1=O)N1CCC(CCc2ccc(Cl)cc2)CC1 (stereo not shown) [Compound 35, 1,3-dioxo-7-(3-phenoxybenzyl)hexahydroimidazo[1,5-a]pyrazin-2(3H)-yl 4-(4-chlorophenethyl)piperidine-1-carboxylate]					
								> 10	8.2	COC(=O)C1CCN(C(=O)ON2C(=O)C3CN(Cc4ccc(Oc5ccccc5)cc4)CCN3C2=O)CC1 (stereo not shown) [Compound 31, 1-(1,3-dioxo-7-(4-phenoxybenzyl)hexahydroimidazo[1,5-a]pyrazin-2(3H)-yl) 4-methyl piperidine-1,4-dicarboxylate]					LYPLA2 in vitro enzyme activity, % @ 20 μM (LYPLA2; [3]): 0% @; LYPLA1 in vitro enzyme activity, % @ 20 μM (LYPLA1; [3]): 0% @
								> 10	0.2	COc1ccc(N2CCN(C(=O)ON3C(=O)C4CN(Cc5cccc(Oc6ccccc6)c5)CCN4C3=O)CC2)cc1 (stereo not shown) [Compound 36, 1,3-dioxo-7-(3-phenoxybenzyl)hexahydroimidazo[1,5-a]pyrazin-2(3H)-yl 4-(4-methoxyphenyl)piperazine-1-carboxylate]					preference ABHD4 over ABHD3 (ABHD4; combined HEK293T lysates, gel-based ABPP): preferentially inhibited ABHD4 over ABHD3
50	100	100	100	50	100	100	100			O=C(ON1C(=O)C2CN(C(=O)N3CCCCC3)CCN2C1=O)N1CCC(CCc2ccc(Cl)cc2)CC1 (stereo not shown) [Compound 2, 1,3-dioxo-7-(piperidine-1-carbonyl)hexahydroimidazo[1,5-a]pyrazin-2(3H)-yl 4-(4-chlorophenethyl)piperidine-1-carboxylate]	ABHD6	FAAH,; also recorded: ABHD6	FAAH,; also recorded: ABHD12,; also recorded: ABHD4,; also recorded: MAGL,; also recorded: ABHD6	FAAH,; also recorded: ABHD12,; also recorded: ABHD4,; also recorded: MAGL,; also recorded: ABHD6	IC50 (human LYPLA2): 258 nM; IC50 (human LYPLA1): 154 nM; CC50 at 48 h [2]: ≥ 10 µM

— patent publication US9981972B2, “N-hydroxy bicyclic hydantoin carbamates as tools for identification of serine hydrolase targets” (ABIDE THERAPEUTICS, INC., priority 2014, dated 2018)
